Like-named read-outs stand apart in the source and are kept apart here.
Experiments:
Format in all cases: in vivo
Abutilon theophrasti = test: Post-emergence herbicidal action against harmful plants; conditions: 20 g a.i./ha, scored after 3 to 4 weeks
Protocol: (§1) Seeds of mono- and dicotyledonous harmful plants are placed in sandy loam in cardboard pots, covered with soil and grown in the greenhouse under good growth conditions. Two to three weeks after sowing, the test plants are treated at the three-leaf stage. The compounds according to the invention, which are formulated as wettable powders or as emulsion concentrates, are sprayed at an application rate of 600 to 800 l of water/ha (converted) in a dosage stated in tables 1 to 5 onto the surface of the green plant parts. After the test plants have been left to stand in the greenhouse for 3 to 4 weeks under optimum growth conditions, the action of the compounds according to the invention is scored in comparison to compounds disclosed in the prior art. As shown by the results of these comparison tables, the selected compounds according to the invention have better herbicidal activity against a broad spectrum of economically important mono- and dicotyledonous harmful plants than the compounds disclosed in the prior art.

Setaria viridis [1] = test: as above; conditions: 504 h, scored after 3 to 4 weeks, read-out: Activity against harmful plants SETVI; for pest or weed control at 20 g/ha: 20 g a.i./ha; for pest or weed control at 80 g/ha: Comparative table 3, post-emergence, 80 g a.i./ha
Protocol: as §1

Setaria viridis [2] = test: Pre-emergence herbicidal action against harmful plants; conditions: Comparative table 7, pre-emergence, 20 g a.i./ha, visual scoring 3-4 weeks after treatment
Description: (§2) Seeds or rhizome pieces of mono- and dicotyledonous harmful plants are placed in sandy loam in pots of a diameter of 9 to 13 cm and covered with soil. The herbicides, formulated as emulsifiable concentrates or dusts, are applied to the surface of the covering soil in the form of aqueous dispersions or suspensions or emulsions at an application rate of 300 to 800 l of water/ha (converted), at various dosages. For further cultivation of the plants, the pots are then kept in a greenhouse under optimum conditions. The visual scoring of the damage to the harmful plants is carried out 3-4 weeks after the treatment. As shown by the results of these comparative tables, the selected compounds according to the invention have better herbicidal activity against a broad spectrum of economically important mono- and dicotyledonous harmful plants than the compounds disclosed in the prior art.

Veronica persica [3] = test: as above; conditions: Comparative table 7, pre-emergence, 20 g a.i./ha, visual scoring 3-4 weeks after treatment
Description: as §2

Viola tricolor [4] = test: as above; conditions: Comparative table 7, pre-emergence, 20 g a.i./ha, visual scoring 3-4 weeks after treatment
Description: as §2

Amaranthus retroflexus [5] = test: as above; conditions: visual scoring 3-4 weeks after treatment
Description: as §2

Veronica persica [6] = test: Post-emergence herbicidal action against harmful plants; conditions: 20 g a.i./ha, scored after 3 to 4 weeks
Protocol: as §1

Viola tricolor [7] = test: as above; conditions: Comparative table 1, post-emergence, 20 g a.i./ha, scored after 3 to 4 weeks
Protocol: as §1

ALOMY = test: Pre-emergence herbicidal action against harmful plants; conditions: Comparative table 6, pre-emergence, 320 g a.i./ha, visual scoring 3-4 weeks after treatment
Description: as §2

Matricaria inodora = test: as above; conditions: Comparative table 6, pre-emergence, 320 g a.i./ha, visual scoring 3-4 weeks after treatment
Description: as §2

Amaranthus retroflexus [8] = test: Post-emergence herbicidal action against harmful plants; conditions: 80 g a.i./ha, scored after 3 to 4 weeks
Protocol: as §1

Galium aparine [9] = test: as above; conditions: Comparative table 2, post-emergence, 80 g a.i./ha, scored after 3 to 4 weeks
Protocol: as §1

Xanthium strumarium [10] = test: as above; conditions: Comparative table 2, post-emergence, 80 g a.i./ha, scored after 3 to 4 weeks
Protocol: as §1

Galium aparine [11] = test: Pre-emergence herbicidal action against harmful plants; conditions: Comparative table 9, pre-emergence, 320 g a.i./ha, visual scoring 3-4 weeks after treatment
Description: as §2

Xanthium strumarium [12] = test: as above; conditions: Comparative table 9, pre-emergence, 320 g a.i./ha, visual scoring 3-4 weeks after treatment
Description: as §2

Cyperus serotinus [13] = test: Post-emergence herbicidal action against harmful plants; conditions: Comparative table 3, post-emergence, 80 g a.i./ha, scored after 3 to 4 weeks
Protocol: as §1

Lolium multiflorum = test: Pre-emergence herbicidal action against harmful plants; conditions: Comparative table 5, pre-emergence, 320 g a.i./ha, visual scoring 3-4 weeks after treatment
Description: as §2

Stellaria media = test: as above; conditions: Comparative table 5, pre-emergence, 320 g a.i./ha, visual scoring 3-4 weeks after treatment
Description: as §2

Cyperus serotinus [14] = test: as above; conditions: Comparative table 5, pre-emergence, 320 g a.i./ha, visual scoring 3-4 weeks after treatment
Description: as §2

[15] = Comparative table 8, post-emergence
[16] = Comparative table 7, pre-emergence, 20 g a.i./ha
[17] = Comparative table 1, post-emergence
[18] = Comparative table 6, pre-emergence, 320 g a.i./ha
[19] = Comparative table 2, post-emergence
[20] = Comparative table 3, post-emergence
[21] = Comparative table 4, post-emergence

SMILES: COCCCNc1c(S(C)(=O)=O)ccc(C(=O)c2c(C)nn(C)c2O)c1Cl
- Activity against harmful plants ABUTH (Abutilon theophrasti; [15]): 70%
- pest or weed control at 20 g/ha (Setaria viridis [1]; [15]): 70%

SMILES: Cc1nn(C)c(O)c1C(=O)c1ccc(S(C)(=O)=O)c(N(C)CC2CC2)c1C
- Activity against harmful plants SETVI (Setaria viridis [2]): 90%
- Activity against harmful plants VERPE (Veronica persica [3]): 90%
- Activity against harmful plants VIOTR (Viola tricolor [4]): 100%
- Activity against harmful plants AMARE (Amaranthus retroflexus [5]; [16]): 100%

SMILES: Cc1nn(C)c(O)c1C(=O)c1ccc(S(C)(=O)=O)c(N)c1C
- pest or weed control at 20 g/ha (Setaria viridis [1]; [17]): 80%
- Activity against harmful plants VERPE (Veronica persica [6]; [17]): 90%
- Activity against harmful plants VIOTR (Viola tricolor [7]): 80%

SMILES: Cc1nn(C)c(O)c1C(=O)c1ccc(S(C)(=O)=O)c(NCC2CC2)c1C
- Activity against harmful plants ALOMY (ALOMY): 60%
- Activity against harmful plants AMARE (Amaranthus retroflexus [5]; [18]): 100%
- Activity against harmful plants MATIN (Matricaria inodora): 80%

SMILES: CNc1c(S(C)(=O)=O)ccc(C(=O)c2c(C)nn(C)c2O)c1Cl
- Activity against harmful plants AMARE (Amaranthus retroflexus [8]; [19]): 70%
- Activity against harmful plants GALAP (Galium aparine [9]): 60%
- Activity against harmful plants XANST (Xanthium strumarium [10]): 50%

SMILES: Cc1nn(C)c(O)c1C(=O)c1ccc(S(C)(=O)=O)c(N(C)C)c1C
- Activity against harmful plants GALAP (Galium aparine [11]): 90%
- Activity against harmful plants XANST (Xanthium strumarium [12]): 100%

SMILES: Cc1nn(C)c(O)c1C(=O)c1ccc(S(C)(=O)=O)c(N)c1Cl
- pest or weed control at 20 g/ha (Setaria viridis [1]; [17]): 40%
- Activity against harmful plants VERPE (Veronica persica [6]; [17]): 70%
- Activity against harmful plants VIOTR (Viola tricolor [7]): 70%

SMILES: CCCNc1c(S(C)(=O)=O)ccc(C(=O)c2c(C)nn(C)c2O)c1C
- pest or weed control at 80 g/ha (Setaria viridis [1]): 90%
- Activity against harmful plants AMARE (Amaranthus retroflexus [8]; [20]): 100%
- Activity against harmful plants CYPES (Cyperus serotinus [13]): 80%

SMILES: CCn1ncc(C(=O)c2ccc(S(C)(=O)=O)c(N(C)C)c2C)c1O
- Activity against harmful plants GALAP (Galium aparine [11]): 80%
- Activity against harmful plants XANST (Xanthium strumarium [12]): 10%

SMILES: CCOCCNc1c(S(C)(=O)=O)ccc(C(=O)c2c(C)nn(C)c2O)c1Cl
- Activity against harmful plants LOLMU (Lolium multiflorum): 0%
- Activity against harmful plants STEME (Stellaria media): 0%
- Activity against harmful plants CYPES (Cyperus serotinus [14]): 60%

SMILES: CCCNc1c(S(C)(=O)=O)ccc(C(=O)c2c(C)nn(C)c2O)c1Cl
- pest or weed control at 80 g/ha (Setaria viridis [1]): 70%
- Activity against harmful plants AMARE (Amaranthus retroflexus [8]; [20]): 70%
- Activity against harmful plants CYPES (Cyperus serotinus [13]): 50%

SMILES: Cc1nn(C)c(O)c1C(=O)c1ccc(S(C)(=O)=O)c(NC(C)C)c1C
- Activity against harmful plants ABUTH (Abutilon theophrasti; [21]): 90%
- pest or weed control at 20 g/ha (Setaria viridis [1]; [21]): 90%
- Activity against harmful plants VERPE (Veronica persica [6]; [21]): 70%

SMILES: Cc1nn(C)c(O)c1C(=O)c1ccc(S(C)(=O)=O)c(N(C)CC2CC2)c1Cl
- Activity against harmful plants SETVI (Setaria viridis [2]): 0%
- Activity against harmful plants VERPE (Veronica persica [3]): 0%
- Activity against harmful plants VIOTR (Viola tricolor [4]): 0%
- Activity against harmful plants AMARE (Amaranthus retroflexus [5]; [16]): 20%

SMILES: CCOCCNc1c(S(C)(=O)=O)ccc(C(=O)c2c(C)nn(C)c2O)c1C
- Activity against harmful plants LOLMU (Lolium multiflorum): 50%
- Activity against harmful plants STEME (Stellaria media): 90%
- Activity against harmful plants CYPES (Cyperus serotinus [14]): 80%

SMILES: COCCCNc1c(S(C)(=O)=O)ccc(C(=O)c2c(C)nn(C)c2O)c1C
- Activity against harmful plants ABUTH (Abutilon theophrasti; [15]): 90%
- pest or weed control at 20 g/ha (Setaria viridis [1]; [15]): 100%

SMILES: Cc1nn(C)c(O)c1C(=O)c1ccc(S(C)(=O)=O)c(NC(C)C)c1Cl
- Activity against harmful plants ABUTH (Abutilon theophrasti; [21]): 80%
- pest or weed control at 20 g/ha (Setaria viridis [1]; [21]): 80%
- Activity against harmful plants VERPE (Veronica persica [6]; [21]): 40%

SMILES: Cc1nn(C)c(O)c1C(=O)c1ccc(S(C)(=O)=O)c(NCC2CC2)c1Cl
- Activity against harmful plants ALOMY (ALOMY): 20%
- Activity against harmful plants AMARE (Amaranthus retroflexus [5]; [18]): 90%
- Activity against harmful plants MATIN (Matricaria inodora): 0%

SMILES: CNc1c(S(C)(=O)=O)ccc(C(=O)c2c(C)nn(C)c2O)c1C
- Activity against harmful plants AMARE (Amaranthus retroflexus [8]; [19]): 90%
- Activity against harmful plants GALAP (Galium aparine [9]): 80%
- Activity against harmful plants XANST (Xanthium strumarium [10]): 70%

— US8178695B2, “4-(3-aminobenzoyl)-1,3-dimethylpyrazoles and their use as herbicides” (Bayer Cropscience AG, priority 2007, dated 2012)
